{"source": "patent US20200113852A1", "about": "“METHODS OF PATIENT SELECTION AND TREATING TRXR- OR PRDX-OVEREXPRESSED CANCERS” (TRIACT THERAPEUTICS, INC., priority 2017, published 2020)", "key": {"TrxR in MDA-MB-231 cells": {"test_system": "TrxR in MDA-MB-231 cells", "assay": "Endogenous TrxR activity (DTNB reduction assay)", "assay_type": "cell-based, human", "conditions": "GSH-depleted MDA-MB-231; iniparib 100 μM, Auranofin 1 μM, up to 4 h", "description": "Initial velocities were derived from linear regression analyses and then plotted in double reciprocal plots to obtain the half time of TrxR inhibition using an one phase exponential decay analysis (Prism, GraphPad software)."}, "[1]": {"test_system": "Trx, JNK, p38MAPK, PARP in HCT116 cells", "assay": "Cell death signaling western blots (Trx oxidation, phospho-JNK, phospho-p38MAPK, cleaved-PARP)", "conditions": "GSH-depleted HCT116, 7 h or 24 h", "protocol": "Cells extracts were analyzed by SDS-PAGE either under reducing conditions or under non-reducing conditions in the case of Trx blot followed by blots anti-phospho-JNK, anti-phospho-p38MAPK, anti-cleaved-PARP and anti-Trx. Results are representative of three independent experiments.\nAfter 2 h at 4° C., lysates were clarified by centrifugation and protein amounts were measured using the BCA assay (Pierce, Thermo scientific).\nEqual amounts of proteins were resolved by SDS-PAGE under either non-reducing or reducing (5% 2-mercaptoethanol, 20 min at 60° C.) conditions, using 4-20% gels (Novex, Invitrogen), then subjected to semi-dry electrophoretic transfer onto nitrocellulose membranes."}, "TrxR in HCT116 cells": {"molecular_target": "T1, TrxR in HCT116 cells (Homo sapiens, UniProt Q16881)", "T1 sequence (Q16881 1-649)": "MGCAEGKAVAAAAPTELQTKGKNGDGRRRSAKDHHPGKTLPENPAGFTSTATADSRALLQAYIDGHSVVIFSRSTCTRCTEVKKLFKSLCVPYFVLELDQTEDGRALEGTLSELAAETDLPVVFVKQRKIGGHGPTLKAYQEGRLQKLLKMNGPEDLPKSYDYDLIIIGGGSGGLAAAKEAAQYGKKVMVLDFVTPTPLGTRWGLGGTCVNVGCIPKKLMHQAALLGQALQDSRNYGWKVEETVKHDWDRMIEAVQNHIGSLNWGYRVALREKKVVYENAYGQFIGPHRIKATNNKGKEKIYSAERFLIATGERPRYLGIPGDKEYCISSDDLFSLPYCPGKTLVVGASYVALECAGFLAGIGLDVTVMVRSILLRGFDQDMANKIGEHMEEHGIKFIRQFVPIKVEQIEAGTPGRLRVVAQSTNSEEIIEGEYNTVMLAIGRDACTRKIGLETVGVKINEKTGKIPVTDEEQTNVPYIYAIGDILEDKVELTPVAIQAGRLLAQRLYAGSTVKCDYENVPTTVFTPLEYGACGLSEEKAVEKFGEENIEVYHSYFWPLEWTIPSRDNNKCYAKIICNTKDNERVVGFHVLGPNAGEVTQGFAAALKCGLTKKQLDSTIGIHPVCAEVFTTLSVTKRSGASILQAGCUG", "assay": "Endogenous TrxR activity in cell lysates (DTNB reduction assay)", "assay_type": "cell-based"}, "[2]": {"molecular_target": "T2, TrxR1 and other protein targets in HCT116 cells (Homo sapiens, UniProt Q16881)", "T2 sequence (Q16881 1-499 isoform Q16881-5)": "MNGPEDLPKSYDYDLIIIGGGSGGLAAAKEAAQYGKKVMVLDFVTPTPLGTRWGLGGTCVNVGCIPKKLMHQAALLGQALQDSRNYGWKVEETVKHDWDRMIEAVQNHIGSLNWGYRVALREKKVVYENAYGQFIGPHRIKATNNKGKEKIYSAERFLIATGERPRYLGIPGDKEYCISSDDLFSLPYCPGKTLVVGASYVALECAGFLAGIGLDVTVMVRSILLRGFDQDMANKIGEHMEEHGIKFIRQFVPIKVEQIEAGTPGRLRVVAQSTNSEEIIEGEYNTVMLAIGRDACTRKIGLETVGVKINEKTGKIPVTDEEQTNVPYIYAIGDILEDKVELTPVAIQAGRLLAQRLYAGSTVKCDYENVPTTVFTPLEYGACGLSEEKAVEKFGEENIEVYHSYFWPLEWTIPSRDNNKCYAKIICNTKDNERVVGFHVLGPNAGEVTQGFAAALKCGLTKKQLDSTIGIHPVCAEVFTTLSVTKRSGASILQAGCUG", "protocol": "(§3) TrxR1 immunoprecipitates (FIG. 17A) and cells extracts (FIG. 17B) were analysed by SDS-PAGE under reducing conditions followed by streptavidin-HRP blot and TrxR1 blot.\n(§4) Clarified octyl-glucoside lysates (12 mg proteins) were combined with anti-TrxR1 or anti-TrxR2 monoclonal antibody coupled to protein G plus agarose (Santa Cruz Biotechnology) and mixed overnight at 4° C. Beads were recovered by centrifugation for 2 min at 1,000×g and extensively washed in octyl-glucoside lysis buffer. Precipitated complexes were eluted by incubating the beads for 20 min at 60° C. in SDS sample buffer. The amount of immunoprecipitated TrxR1 and TrxR2 was systematically checked by blots anti-TrxR1 and anti-TrxR2, respectively."}, "[3]": {"test_system": "TrxR1 and other protein targets in HCT116 cells", "conditions": "GSH-depleted HCT116", "protocol": "as §3, §4"}, "[4]": {"test_system": "GSH in HCT116 and MDA-MB-453 cell lines", "assay": "GSH depletion with BSO (GSH-Glo glutathione assay)", "assay_type": "cell-based, human", "conditions": "1 mM BSO for 18 h, both cell lines", "experimental": "Cells were seeded (96 well plates) at increasing densities, the highest density corresponding to that used for viability studies. […] GSH amount was measured thereafter using GSH-Glo™ glutathione assay."}, "[5]": {"test_system": "several cancer cell lines", "assay": "Cytotoxic activity on several cancer cell lines (preliminary screening)", "conditions": "all cell lines"}, "recombinant human GAPDH": {"molecular_target": "T3, recombinant human GAPDH (Homo sapiens, UniProt P04406)", "T3 construct": "purchased Acris", "T3 sequence (P04406 whole entry)": "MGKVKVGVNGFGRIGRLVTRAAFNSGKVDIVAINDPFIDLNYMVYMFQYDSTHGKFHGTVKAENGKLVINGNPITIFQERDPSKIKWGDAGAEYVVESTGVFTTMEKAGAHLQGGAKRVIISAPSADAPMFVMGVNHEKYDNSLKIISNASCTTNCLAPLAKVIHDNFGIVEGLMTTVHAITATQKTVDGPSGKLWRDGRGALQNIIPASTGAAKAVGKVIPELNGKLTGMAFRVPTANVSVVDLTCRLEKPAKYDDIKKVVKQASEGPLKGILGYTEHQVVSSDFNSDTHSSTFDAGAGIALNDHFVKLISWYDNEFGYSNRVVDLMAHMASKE", "assay": "In vitro modification of GAPDH by Iniparib and I-NOBA", "assay_type": "binding", "experimental": "For biochemical analysis, recombinant human GAPDH (Acris) was first reduced by a 15,000-fold excess of DTT at 56° C. for 30 min, the reducing agent being removed thereafter by chloroform/methanol precipitation. […] Afterwards the samples were submitted or not to another reducing step with 25 mM DTT (56° C., 30 min), and after removal of DTT by chloroform/methanol precipitation, biotinylation of free cysteine sulfhydryl groups of GAPDH was performed with HPDP-biotin (N-[6-(Biotinamido)hexyl]-3′-(2′-pyridyldithio)propionamide) at […] for 2 h at 20° C.\nSample mixtures were then reduced or not with 25 mM DTT (56° C., 30 min). Intact molecular weights were measured by mass spectrometry. Liquid chromatography-electrospray ionization mass spectrometry (LC/MS) was carried out using LTQ-Orbitrap Elite mass spectrometer (Thermo Fisher Scientific) coupled to a Famos Autosampler and an Ultimate Pump (LC-Packing, Dionex). Reverse phase chromatography was performed with a binary buffer system consisting of 0.2% formic acid (buffer A) and 80% acetonitrile in 0.2% formic acid (buffer B). After dilution to 1 pmole/μl in 0.2% formic acid, 1 μl of samples were loaded on a Poros 1 R/H column (75 μm×15 cm, Dionex). […] Mass spectra (m/z 500-2,000) were acquired in the positive ITMS mode with 5 μscans accumulation, a target value of 30,000 and a maximum injection time of 100 ms. The acquired raw files were converted in MassLynx format (Waters) using an home-made program and then were deconvoluted using MaxEnt software (Waters)."}, "MDA-MB-453 cells": {"test_system": "MDA-MB-453 cells", "assay": "Iniparib metabolites release, XLC-MS/MS of incubation media", "assay_type": "in vitro ADME, human", "parameters": "unit not given beside the values", "experimental": "(§1) Online solid phase extraction (SPE) was performed using the fully automated Spark Holland Symbiosis™ (Emmen, The Netherlands) in eXtraction Liquid Chromatography (XLC) mode. The Symbiosis™ has previously been described in detail (18). HySphere™ C18 HD 7 μm SPE cartridges were used (Spark Holland). Each cartridge was initially conditioned with 2 ml methanol+0.5% formic acid (FA) and then equilibrated with 2 ml water+0.5% FA, both at flow-rates of 4 ml/min. Sample (25 μl) was aspirated and loaded onto the cartridge with 1 ml water+0.5% FA at a flow-rate of 1 ml/min. […] After elution, the right clamp was washed successively with 2 ml water+0.5% FA, 2 ml methanol+0.5% FA and 2 ml water+0.5% FA at 4 ml/min. […] The mobile phase composition was returned to starting conditions over 1 min and maintained during 6 min for column equilibration. The total run time was 27 min. Mass spectrometry was performed using the Thermo® TSQ Quantum Discovery Max in electrospray positive ionization mode (Thermo, US) with the following parameters: capillary voltage=4.0 kV, capillary temperature=300° C., sheath gas pressure=40, auxiliary gas pressure=5.\n(§2) All values are expressed as means±SEM of three independent experiments. ND., non detectable."}, "HCT116 cells": {"test_system": "HCT116 cells", "assay": "Iniparib metabolites release, XLC-MS/MS of incubation media", "assay_type": "in vitro ADME, human", "parameters": "unit not given beside the values", "conditions": "HCT116 w BSO", "experimental": "as §1, §2"}, "[6]": {"molecular_target": "T4, human recombinant glutathione S-transferase pi (GSTP1) (Homo sapiens, UniProt P09211)", "T4 construct": "purchased Acris", "T4 sequence (P09211 whole entry)": "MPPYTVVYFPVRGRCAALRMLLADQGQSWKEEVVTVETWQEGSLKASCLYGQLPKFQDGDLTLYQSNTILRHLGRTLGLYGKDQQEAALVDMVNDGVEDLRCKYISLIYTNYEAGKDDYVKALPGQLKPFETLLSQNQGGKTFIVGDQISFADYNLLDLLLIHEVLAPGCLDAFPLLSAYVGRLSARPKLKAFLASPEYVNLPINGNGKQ", "assay": "In vitro Iniparib-glutathione conjugation", "assay_type": "biochemical", "conditions": "30 μM, 1 mM GSH, absence of GSTP1", "experimental": "as §1"}}, "data": [{"smiles": "CC(=O)OC[C@H]1O[C@@H]([S-])[C@H](OC(C)=O)[C@@H](OC(C)=O)[C@@H]1OC(C)=O.CCP(CC)CC.[Au+]", "note": "[Auranofin]", "values": [{"measurement": "TrxR reductase activity", "setting": "TrxR in MDA-MB-231 cells", "result": "inhibition of the reductase activity"}, {"measurement": "p38MAPK and JNK phosphorylation", "setting": "[1]", "result": "JNK and p38MAPK activation"}, {"measurement": "inhibition of TrxR activity", "setting": "TrxR in HCT116 cells; 1 μM, immediately after adding the compound to the cells", "result": "inhibited almost completely"}, {"measurement": "IC50", "setting": "TrxR in HCT116 cells; 4 h treatment, BSO-pretreated HCT116", "result": 70, "unit": "nM"}, {"measurement": "TrxR1 labeling with Iniparib-biotin after preincubation", "setting": "[2]; 90-min preincubation of GSH-depleted HCT116 (auranofin 10 μM or Iniparib 100 μM)", "result": "abolished"}, {"measurement": "concentration preventing Iniparib-biotin labeling of the 55-kDa protein attributed to TrxR", "setting": "[2]; GSH-depleted HCT116", "result": "0.1 to 0.3", "unit": "µM"}, {"measurement": "concentration inhibiting all adduct formation with Iniparib-biotin", "setting": "[3]", "result": "1 to 3", "unit": "µM"}]}, {"smiles": "CCCCS(=N)(=O)CCC(N)C(=O)O", "note": "[BSO, L-buthionine sulfoximine]", "values": [{"measurement": "GSH content", "setting": "[4]", "result": "below 5 % of controls"}]}, {"smiles": "NC(=O)c1ccc(I)c(N=O)c1", "note": "[I-NOBA]", "values": [{"measurement": "cytotoxic activity relative to Iniparib", "setting": "[5]", "result": "more active than Iniparib"}, {"measurement": "covalent modification of GAPDH (MS analysis)", "setting": "recombinant human GAPDH; purified GAPDH incubated with compound", "result": "formation of protein adducts"}, {"measurement": "blocking of free thiol groups in GAPDH", "setting": "recombinant human GAPDH; purified GAPDH, biotin-HPDP labeling, streptavidin-HRP blot", "result": "completely blocked"}, {"measurement": "Iniparib and metabolites in incubation media", "setting": "MDA-MB-453 cells; MDA-MB-453 w BSO, 1 h after 100 μM Iniparib", "result": "0.6 ± 0.1"}, {"measurement": "Iniparib and metabolites in incubation media", "setting": "MDA-MB-453 cells; MDA-MB-453 w BSO, 5 h after 100 μM Iniparib", "result": "3.5 ± 0.7"}, {"measurement": "Iniparib and metabolites in incubation media", "setting": "MDA-MB-453 cells; MDA-MB-453 w BSO, 24 h after 100 μM Iniparib", "result": "2.9 ± 1.0"}, {"measurement": "Iniparib and metabolites in incubation media", "setting": "MDA-MB-453 cells; MDA-MB-453 w/o BSO, 24 h after 100 μM Iniparib", "result": "0.2 ± 0.1"}, {"measurement": "Iniparib and metabolites in incubation media", "setting": "HCT116 cells; 1 h after 100 μM Iniparib", "result": "4.4 ± 0.0"}, {"measurement": "Iniparib and metabolites in incubation media", "setting": "HCT116 cells; 5 h after 100 μM Iniparib", "result": "14.6 ± 0.1"}, {"measurement": "Iniparib and metabolites in incubation media", "setting": "HCT116 cells; 24 h after 100 μM Iniparib", "result": "26.5 ± 2.9"}, {"measurement": "reaction with GSH", "setting": "[6]", "result": "reacted with GSH"}]}]}
